Laboratory results as given in US6358515B2, “Hydroquinone derivatives” (Senju Pharmaceutical Co., Ltd., priority 1997, dated 2002).

Experiments:
[1] = system: Intraocular Pressure of Rabbit; assay: Intraocular pressure lowering effect in rabbits (eye drop instillation, tonometer); format: in vivo, Male Dutch rabbits; details: for Intraocular pressure, 1 hr: 1 hr after instillation of 50 μl of 0.5% eye drops into the right eye; for Intraocular pressure, 1 hr / Intraocular pressure, 2 hr / Intraocular pressure, 3 hr / Intraocular pressure, 4 hr / Intraocular pressure, 0 hr: mean ± SD (n = 4-5); for Intraocular pressure, 2 hr: 2 hr after instillation of 50 μl of 0.5% eye drops into the right eye; for Intraocular pressure, 3 hr: 3 hr after instillation of 50 μl of 0.5% eye drops into the right eye; for Intraocular pressure, 4 hr: 4 hr after instillation of 50 μl of 0.5% eye drops into the right eye; for Intraocular pressure, 0 hr: initial value (0 hr) before instillation
Procedure: The present compound was tested for its intraocular pressure lowering effect.
Male Dutch rabbits of about 2.5 kg body weight were used in the test.
Intraocular pressure was measured by means of a contact type tonometer (ALCON Applanation Pneumatonograph) after instillation of oxybuprocaine hydrochloride [Anelocal (registered trademark) eye drops: SENJU Pharmaceutical Co., Ltd.] into both eyes of the rabbits for local anesthesia.
Eye drops were prepared each containing one of the test compounds at a concentration of 0.5% and 50 μl of it was instilled into the right eye. Intraocular pressure of both eyes was measured over time (0, 1, 2, 3, 4 hours). For analysis, Student t-test was conducted for the intraocular pressure measured at each time against the initial value.

[2] = system: Blood Pressure of SHR Rat; assay: Effect on blood pressure of SHR rat (oral administration); format: in vivo, male SHR/Izm rats; details: mean ± SD (n = 4-5); for Blood pressure, 1 hr: 1 hr after 30 mg/kg orally; for Blood pressure, 2 hr: 2 hr after 30 mg/kg orally; for Blood pressure, 3 hr: 3 hr after 30 mg/kg orally; for Blood pressure, 4 hr: 4 hr after 30 mg/kg orally; for Blood pressure, 0 hr: initial value (0 hr) before administration
Procedure: The present compound was tested for its blood pressure lowering effect.
About 25-week old male SHR/Izm rats were used in the test.
Initial value of the blood pressure of rat tail vein was measured with a non-invasive automatic manometer for small animals, UR-5000 (UEDA Seisakusho), and then one of the test compounds 30 mg/kg was orally administered. Blood pressure was measured in the same manner 1, 2, 3 and 4 hours after administration. For analysis, Student t-test was conducted for the blood pressure measured at each time against the initial value.

[3] = Radical scavenging ability on the stable radical DPPH; details: for IC50: DPPH radical; for Radical scavenging activity (in words) / Radical scavenging rate (%): DPPH; for Radical scavenging activity (in words): 1-1000 μM; for Radical scavenging rate (%): 20 minutes, absorbance at 517 nm
Procedure: The present compound was tested for its scavenging ability on a stable radical of 1,1-diphenyl-2-picrylhydrazide (DPPH).
The test was carried out according to the method described by Blois, M. S., Nature, 181: 1199 ([…]).
Each of the test compound was dissolved in purified water to prepare 10^−5-10^−2 M test solutions. To 300 μl each of the test solutions was added 2.7 ml of a […] solution of the stable radical, DPPH, in ethanol and stirred. The mixture was allowed to stand for 20 minutes, and absorbance at 517 nm was measured. Radical scavenging ability was determined for each of the test solutions according to the following equation.
Radical scavenging rate (%)=(Absorbance of control−Absorbance of test solution[…])×100

Row | Compound | melting point | Intraocular pressure, 1 hr [1] | Intraocular pressure, 2 hr [1] | Intraocular pressure, 3 hr [1] | Intraocular pressure, 4 hr [1] | Intraocular pressure, 0 hr [1] [mmHg] | Blood pressure, 1 hr [2] | Blood pressure, 2 hr [2] | Blood pressure, 3 hr [2] | Blood pressure, 4 hr [2] | Blood pressure, 0 hr [2] [mmHg] | other results
1 | COc1ccccc1N1CCN(C(Oc2cc(C)c(O)c(OC)c2OC)C(C)O)CC1.Cl (stereo not shown) | 138 to 140 °C |  |  |  |  |  |  |  |  |  |  | 
2 | COc1ccccc1N1CCN(CC(O)COc2c(C)cc(O)c3ccccc23)CC1.Cl.Cl (stereo not shown) [Example 4, 1-(2-Methyl-4-hydroxynaphthoxy)-3-[4-(2-methoxyphenyl)-1-piperazinyl]propan-2-ol dihydrochloride] |  | 17.3 ± 2.06^*3 mmHg | 15.0 ± 3.74^*2 mmHg | 15.8 ± 2.06^*3 mmHg | 20.8 ± 2.22^*2 mmHg | 26.5 ± 1.75 | 201.8 ± 7.7^*3 mmHg | 207.8 ± 13.8^*2 mmHg | 212.2 ± 3.8^*3 mmHg | 212.2 ± 20.8^*1 mmHg | 240.0 ± 8.5 | Intraocular pressure lowering effect (in words) ([1]; 0.5% eye drops): a potent intraocular pressure lowering effect was observed since one hour after instillation; Time of peak intraocular pressure lowering effect after instillation ([1]; 0.5% eye drops): 2 h; IC50 [3]: 42 µM; Radical scavenging activity (in words) [3]: concentration-dependently exhibited a radical scavenging activity; Radical scavenging rate (%) ([3]; final concentration 1 μM): 6.7%; Radical scavenging rate (%) ([3]; final concentration 10 μM): 16.6%; Radical scavenging rate (%) ([3]; final concentration 30 μM): 37.7%; Radical scavenging rate (%) ([3]; final concentration 100 μM): 75.4%; Radical scavenging rate (%) ([3]; final concentration 1000 μM): 91.7%
3 | COc1ccccc1N1CCN(CC(O)COc2ccc(O)c(C)c2C)CC1.Cl (stereo not shown) [Example 22, 1-(2,3-Dimethyl-4-hydroxyphenoxy)-3-[4-(2-methoxyphenyl)-1-piperazinyl]propan-2-ol hydrochloride] | 228 to 230 °C (dec.) |  |  |  |  |  | 218.3 ± 11.3^*1 mmHg | 231.0 ± 14.5 mmHg | 236.5 ± 9.1 mmHg | 241.0 ± 9.8 mmHg | 247.0 ± 10.7 | 
4 | COc1ccccc1N1CCN(CC(O)COc2cc(C)c(O)c3ccccc23)CC1 (stereo not shown) [Example 2, 1-(3-Methyl-4-hydroxynaphthoxy)-3-[4-(2-methoxyphenyl)-1-piperazinyl]propan-2-ol] |  | 21.8 ± 2.05^*1 mmHg | 24.4 ± 1.82 mmHg | 25.8 ± 2.39 mmHg | 26.6 ± 2.88 mmHg | 25.2 ± 1.30 | 204.0 ± 17.6 mmHg | 192.2 ± 6.2^*1 mmHg | 191.2 ± 14.6^*1 mmHg | 187.8 ± 11.4^*1 mmHg | 216.8 ± 18.0 | IC50 [3]: 23 µM; Radical scavenging activity (in words) [3]: concentration-dependently exhibited a radical scavenging activity; Radical scavenging rate (%) ([3]; final concentration 1 μM): 7.8%; Radical scavenging rate (%) ([3]; final concentration 10 μM): 24.9%; Radical scavenging rate (%) ([3]; final concentration 30 μM): 61.0%; Radical scavenging rate (%) ([3]; final concentration 100 μM): 99.4%; Radical scavenging rate (%) ([3]; final concentration 1000 μM): 99.8%
5 | COc1ccccc1N1CCN(CC(O)COc2cc(C)c(O)c(C)c2C)CC1 (stereo not shown) [Example 23, 1-(2,3,5-Trimethyl-4-hydroxyphenoxy)-3-[4-(2-methoxyphenyl)-1-piperazinyl]propan-2-ol] | 163 to 165 °C | 20.8 ± 3.30^*1 mmHg | 22.8 ± 3.40 mmHg | 22.5 ± 3.42 mmHg | 23.8 ± 3.30 mmHg | 27.5 ± 3.42 | 193.3 ± 15.4 mmHg | 192.0 ± 10.8 mmHg | 179.3 ± 7.8^*1 mmHg | 192.0 ± 15.1 mmHg | 204.0 ± 14.4 | 
6 | COc1ccccc1N1CCN(CC(O)COc2cc(C)c(O)cc2C)CC1.Cl.Cl (stereo not shown) | 214 to 215 °C (dec.) |  |  |  |  |  |  |  |  |  |  | 

Now from value to molecule, other results behind:

Row | melting point | Compound | Intraocular pressure, 1 hr [1] | Intraocular pressure, 2 hr [1] | Intraocular pressure, 3 hr [1] | Intraocular pressure, 4 hr [1] | Intraocular pressure, 0 hr [1] [mmHg] | Blood pressure, 1 hr [2] | Blood pressure, 2 hr [2] | Blood pressure, 3 hr [2] | Blood pressure, 4 hr [2] | Blood pressure, 0 hr [2] [mmHg] | other results
7 | 208 to 210 °C (dec.) | COc1ccccc1N1CCN(CC(O)COc2cc(C)c(O)c(C)c2)CC1.Cl.Cl (stereo not shown) [Example 17, 1-(3,5-Dimethyl-4-hydroxyphenoxy)-3-[4-(2-methoxyphenyl)-1-piperazinyl]propan-2-ol dihydrochloride] | 25.4 ± 2.79^*1 mmHg | 25.4 ± 2.88^*1 mmHg | 27.0 ± 3.08 mmHg | 28.6 ± 4.22 mmHg | 30.0 ± 3.08 | 214.8 ± 9.9^*1 mmHg | 230.8 ± 13.0 mmHg | 225.0 ± 13.0 mmHg | 219.5 ± 10.6 mmHg | 247.3 ± 23.2 | 
8 | 168 to 170 °C (dec.) | COc1ccc(OC)c(N2CCN(CC(O)COc3ccc(O)cc3C)CC2)c1.Cl.Cl (stereo not shown) |  |  |  |  |  |  |  |  |  |  | 
9 | 205 to 207 °C | COc1ccc(OC)c(N2CCN(CC(O)COc3ccc(O)cc3)CC2)c1.Cl.Cl (stereo not shown) [Example 25, 1-(4-Hydroxyphenoxy)-3-[4-(2,5-dimethoxyphenyl)-1-piperazinyl]propan-2-ol dihydrochloride] | 26.8 ± 1.92^*2 mmHg | 25.4 ± 1.82^*2 mmHg | 28.6 ± 6.11 mmHg | 29.6 ± 2.07 mmHg | 31.6 ± 2.41 |  |  |  |  |  | 
10 | 192 to 194 °C (dec.) | COc1ccccc1N1CCN(CC(O)COc2ccc(O)cc2C)CC1.Cl.Cl (stereo not shown) |  |  |  |  |  |  |  |  |  |  | 
11 | 213 to 215 °C (dec.) | COc1ccc(N2CCN(CC(O)COc3ccc(O)cc3)CC2)c(OC)c1.Cl.Cl (stereo not shown) |  |  |  |  |  |  |  |  |  |  | 
12 | 214 to 216 °C (dec.) | COc1ccccc1N1CCN(CC(O)COc2ccc(O)c(C)c2)CC1.Cl.Cl (stereo not shown) |  |  |  |  |  |  |  |  |  |  | 
13 | 170 to 172 °C | COc1ccccc1N1CCN(CC(O)COc2ccc(O)c(C(C)(C)C)c2)CC1.Cl (stereo not shown) [Example 20, 1-(3-tert-Butyl-4-hydroxyphenoxy)-3-[4-(2-methoxyphenyl)-1-piperazinyl]propan-2-ol hydrochloride] | 22.2 ± 2.59^*1 mmHg | 25.2 ± 0.84 mmHg | 25.8 ± 2.59 mmHg | 28.0 ± 1.73 mmHg | 28.0 ± 3.81 | 204.8 ± 16.9^*2 mmHg | 215.0 ± 11.0^*2 mmHg | 217.5 ± 15.2^*1 mmHg | 216.3 ± 18.0^*1 mmHg | 250.3 ± 14.3 | 
14 | 222 to 224 °C | COc1ccc(C)cc1N1CCN(CC(O)COc2ccc(O)cc2)CC1.Cl.Cl (stereo not shown) |  |  |  |  |  |  |  |  |  |  | 
